Laboratory results taken from patent US8889156B2, “Calcium-binding agents induce hair growth and/or nail growth” (priority 2009, dated 2014).
Where two headings read alike, the source gives them in different places. Ends that are not written are not given here.

Experiments:
[1] = literature values quoted for comparison; cited from earlier work
[2] = Binding of labeled peptide to sagittally sectioned adult human molars (CLSM, Example 6); details: fluorescein-labeled peptide, 10 min
Method: For binding experiments, sagittally sectioned adult human molars were incubated for 10 min in a solution of 12.5 p.M 5(6)-carboxyfluorescein-labeled 6DSS (SEQ ID NO:32) peptide containing 10 mM NaCl and 50 mM HEPES, pH 7.0. Control samples were prepared without peptide. Samples were rinsed after treatment and imaged by confocal laser scanning microscopy (CLSM) with illumination by a blue Kr/Ar laser (λ=488 nm) and a FITC emission filter. To test binding of DSS-containing peptides to biological tissue, sagittally sectioned human teeth were incubated treated with 6DSS (SEQ ID NO:32) (control samples were prepared without peptide), washed, and imaged by CLSM.

[3] = Free peptide with CaCl2 and NaHPO4: formation of HA crystals in solution; details: 25 μM free peptide
[4] = Tissue specific binding of labeled peptides to sections of human teeth (CLSM); details: 5(6)-carboxyfluorescein-labeled peptide, ten minutes; for level of binding (staining) to tooth surfaces: identical settings
Text: In order to investigate the tissue specificity of DSS peptide binding to tooth tissue, sections of human teeth were exposed to DSS peptides and variants, then imaged by CLSM. The peptides utilized for these experiments were 8DSS (SEQ ID NO:33), 8ASS (SEQ ID NO:26), 8DAA (SEQ ID NO:40), 8NAA (SEQ ID NO:41), 4DSS (SEQ ID NO:31), 4ESS (SEQ ID NO:34), 4NSS (SEQ ID NO:35), 4DTT (SEQ ID NO:36), 4ETT (SEQ ID NO:37), 4NTT (SEQ ID NO:38), and 6DSS (SEQ ID NO:32). Sagittal sections of human teeth extracted during normal clinical practice were polished and then incubated for ten minutes in a solution of the appropriate 5(6) carboxyfluorescein-labeled peptide (12.5pM) containing 10 mM NaCl and 50 mM HEPES, pH 7.0. Control samples were prepared without peptide. Samples were washed extensively after treatment and imaged by CLSM using blue laser illumination (A=488 nm) and a FITC emission filter, with identical camera and microscope settings for each sample. For each section, multiple scans were collected and assembled in an automated mode to generate panels of images representing an area of 13×13 mm, sufficient in most cases to encompass the whole section. […] Significant binding was also seen to the edges of the pulp cavity.

[5] = tested on: mineralizing mouse bone marrow nodules; assay: Binding to mineralizing mouse bone marrow cultures (fluorescence microscopy); format: cell-based; details: labeled peptide, continuous treatment for 3 weeks
Method: Mouse bone marrow cultures were grown to confluence in DMEM+10% FBS and then treated continuously for 3 weeks with either 2.5 p.M 5(6)-carboxyfluorescein-labeled 6DSS (SEQ ID NO:32) or 2.5 p.M 5(6)-carboxyfluorescein-labeled peptide #3-1 (control peptide) in α-MEM+10% FBS+50 p.g/mL ascorbic acid 4 mM β-glycerophosphate. Cultures were imaged by fluorescence microscopy using a FITC excitation/emission filter set.
Having established that (DSS)n-containing peptides are able to actively bind HA, we sought to determine whether they would bind to emerging sites of mineralization in biologically derived tissue. Mouse bone marrow (MBM) cultures, cultured under osteogenic conditions, were treated continuously for 3 weeks with either labeled 6DSS (SEQ ID NO:32) peptide or labeled peptide #3-1 (non-calcium-binding control peptide). Cultures were imaged by fluorescence microscopy using a FITC excitation/emission filter set.

[6] = Binding of labeled peptides to carious lesions in teeth (CLSM); set-up: species or system human; details: labeled peptide, settings optimized per sample
Text: Sections of human teeth containing obvious carious lesions, which consist of demineralized enamel, were polished and exposed to 5(6)-carboxyfluorescein-labeled DSS peptides and variants. The sections were washed extensively and imaged by CLSM using blue laser illumination (A=488 nm) and a FITC emission filter, with microscope and camera settings adjusted for each sample to optimize the signal detected from each peptide. The images were examined to identify the relative levels of peptide binding in healthy versus carious tissue. […] Given their ability to remineralize at sites of enamel degradation, they can also be used to initiate remineralization at sites of enamel degradation such as caries or injury sites without causing inappropriate nucleation on healthy tissue surfaces.

[7] = HA binding assay (pulldown of fluorescein-labeled peptides, Langmuir isotherm fit); details: for Nmax (maximum monolayer surface concentration) / KA (binding affinity for HA): fit of Langmuir equation; for KA (binding affinity for HA): fluorescein-labeled peptide 0-100 μM, 0.3 mg HA nanocrystals
Method: Fluorescein-labeled DSS-containing peptides of various lengths were subjected to pulldown assays as follows: Samples containing varying concentrations of fluorescein-labeled peptide (0-100 μM) and a fixed amount (0.3 mg) of HA nanocrystals with a specific surface area of 100 m^2/g (Berkeley Advanced Biomaterials, Berkeley, Calif.) were prepared. Measurements were taken of the absorbance of the labeled peptide at 488 nm (the peak absorbance of the fluorescein label) before and after exposure to the HA. The amount of peptide bound was calculated by comparing the ratio of the final (Af) and initial (Ai) absorbances to the initial concentration (C0) [Cbound=(Af/Ai)C0]. Plots were generated of the amount of peptide bound per meter squared of HA surface area vs. concentration of unbound peptide at equilibrium. The resulting isotherms were fit to the Langmuir isotherm, x/m=(KANmaxCeq)/(1+KACeq), where x/m represents the molar amount of peptide bound per unit of HA surface area, KA is the affinity constant of the peptide for the HA surface (L/Mol), Nmax is the maximum surface concentration (mol/m^2), and Ceq is the molar concentration of unbound peptide at equilibrium (Calis et al. (1995) Pharm Res., 12: 1072-1076).
In order to quantitatively assess the strength of the DSS-HA interaction as well as to determine the roles of peptide length and sequence on binding, fluorescein-labeled, DSS-containing peptides of various lengths were subjected to pulldown assays as described in “Materials and Methods.”
The experimental data were fit to the Langmuir isotherm, which describes the binding of molecules to surfaces with the conditions that (1) all binding sites have the same affinity for the peptide and (2) the peptide will form a monolayer on the surface but cannot accumulate to higher levels (Atkins (1994) Physical chemistry. Freeman, New York). The excellent fit of the Langmuir isotherm to the experimental data validates these conditions, and the constants obtained from this analysis were used for comparisons between peptides. As shown in FIG. 7A and summarized in Table 6, both the binding affinity (KA) and the monolayer concentration (NMax) of the various peptides increased with the number of DSS repeats per peptide. Additionally, several variant peptides were tested (FIGS. 7B, 7C, Table 6): a peptide containing a longer side chain at the first position (4ESS (SEQ ID NO:34)), peptides containing a more sterically hindered hydroxyl group at the second and third positions (4DTT (SEQ ID NO:36), 4NTT (SEQ ID NO:38), 4ETT (SEQ ID NO:37)), peptides lacking a charged group at the first position (4NSS (SEQ ID NO:35), 8ASS (SEQ ID NO:26)), and peptides lacking hydroxyl groups at the second and third positions (DAA-8 (SEQ ID NO:40), 8NAA (SEQ ID NO:41)).

[8] = tested on: Streptococcus mutans strain UA159; format: cell-based
Method: The sequences of these fusion proteins are […] NO:24), and […] NO:25) (see SEQ ID NOs:27-29, respectively in WO 2007/038683). The antimicrobial activity of these peptides against anaerobic planktonic bacteria was determined by a modification of a previously described assay. Briefly, Streptococcus mutans strain UA159 cells were diluted to -1×10^5 cfu/mL in Todd-Hewitt (TH) broth medium and mixed with either suspended hydroxyapatite nanocrystals (Berkeley Advanced Biomaterials, Inc., 0.03% w/v) or, for control samples, an equivalent volume of deionized water. Aliquots were transferred into 96-well plates (Fisher). Serial dilutions of the peptides were then made and added to the bacteria. […] Nonetheless, some antimicrobial activity is retained by this peptide.

N[C@@H](CC(=O)O)C(=O)O [Asp, aspartic acid]
HA binding affinity [1]: 220 M⁻¹

N[C@@H](CCC(=O)O)C(=O)O [glutamic acid]
HA binding affinity [1]: 206 M⁻¹

N[C@@H](COP(=O)(O)O)C(=O)O [phosphoserine]
HA binding affinity [1]: 5,000-13,200 M^−1

N[C@@H](CO)C(=O)O [serine]
HA binding affinity [1]: 317,000 M^−1

DSS DSS DSS DSS DSS DSS (DSSDSSDSSDSSDSSDSS; synthetic calcium-binding peptide 6DSS)
binding to dentin [2]: intense fluorescent staining | binding to enamel [2]: no binding to the enamel was seen | enhancement of HA crystal formation by free peptide at subcritical CaHPO4 concentrations [3]: this was not observed | tissue pattern of binding in the tooth section [4]: bound primarily to the mantle dentin | level of binding (staining) to tooth surfaces [4]: the greatest levels of staining | staining of mineralizing MBM nodules [5]: bright staining of the mineralizing MBM nodules | specificity of binding to carious lesions versus healthy enamel [6]: highly specific binding to carious lesions | strength of staining of carious lesions [6]: exceptionally strong staining of carious lesions | Nmax (maximum monolayer surface concentration) [7]: 1.3 × 10^−7 ± 3 × 10^−9 mol/m^2 | KA (binding affinity for HA) [7]: 272,000 ± 26,000 M^−1

DSSDSSDSSDSSGGGRWRWRWF [4DSS-2c4, DSS DSS DSS DSS GGG RWRWRWF]
MIC ([8]; planktonic S. mutans, with 0.03% (w/v) hydroxyapatite, approximately 24 hours): unaffected | MIC ([8]; strain UA159, 24 h): 52.5

ESS ESS ESS ESS (ESSESSESSESS; synthetic calcium-binding peptide 4ESS)
level of binding (staining) to tooth surfaces [4]: lower levels of binding | specificity of binding to carious lesions versus healthy enamel [6]: highly specific binding to carious lesions | strength of staining of carious lesions [6]: exceptionally strong staining of carious lesions | Nmax (maximum monolayer surface concentration) [7]: 4.6 × 10^−8 ± 4 × 10^−9 mol/m^2 | KA (binding affinity for HA) [7]: 81,000 ± 18,000 M^−1

ETT ETT ETT ETT (ETTETTETTETT; synthetic calcium-binding peptide 4ETT)
tissue pattern of binding in the tooth section [4]: binding patterns similar to those of 4DSS | level of binding (staining) to tooth surfaces [4]: sharply reduced levels | specificity of binding to carious lesions versus healthy enamel [6]: highly specific binding to carious lesions | Nmax (maximum monolayer surface concentration) [7]: 8.8 × 10^−8 ± 9 × 10^−9 mol/m^2 | KA (binding affinity for HA) [7]: 79,000 ± 25,000 M^−1 | effect of sequence variation on binding affinity (KA) relative to DSS peptide of same size ([7]; in words): little observable effect

FHFHLHF [PL-135, FHFHLHF, reference compound]
MIC ([8]; strain UA159, 24 h): 21

LIKHILHRL [#3-1, reference compound]
staining of mineralizing MBM nodules [5]: no binding seen

LKRFLKWFKRF [b-34, LKRF LKWF KRF, reference compound]
MIC ([8]; strain UA159, 24 h): 5.6

NAANAANAANAANAANAANAANAA [8NAA]
tissue pattern of binding in the tooth section [4]: did bind somewhat to a carious lesion | level of binding (staining) to tooth surfaces [4]: very little binding to any healthy tissue | specificity of binding to carious lesions versus healthy enamel [6]: highly specific binding to carious lesions | HA binding activity ([7]; in words): near-total loss of binding activity

NSS NSS NSS NSS (NSSNSSNSSNSS; synthetic calcium-binding peptide 4NSS)
level of binding (staining) to tooth surfaces [4]: lower levels of binding | specificity of binding to carious lesions versus healthy enamel [6]: highly specific binding to carious lesions | Nmax (maximum monolayer surface concentration) [7]: 3.0 × 10^−8 ± 1 × 10^−9 mol/m^2 | KA (binding affinity for HA) [7]: 16,000 ± 4,000 M^−1 | effect of sequence variation on binding affinity (KA) relative to DSS peptide of same size ([7]; in words): significant loss of binding affinity

RWRWRWF [2c-4, RWRWRWF, reference compound]
MIC ([8]; strain UA159, 24 h): 2
